Measurements reported in ChEMBL document CHEMBL5346978, “Exploration of Tetrahydroisoquinoline- and Benzo[c]azepine-Based Sphingosine 1-Phosphate Receptor 1 Agonists for the Treatment of Multiple Sclerosis” (J Med Chem, 2023).

Legend:
[1] = target: T1, Sphingosine 1-phosphate receptor 1 (Homo sapiens, UniProt P21453); assay: Agonist activity at S1P1 (unknown origin) expressed in human HEK293/Galpha15 cells assessed as Ca2+ activation at 1 uM measured for 2 hrs by FLIPR analysis relative to control; format: functional, cell-based
[2] = target: T1, Sphingosine 1-phosphate receptor 1; assay: Agonist activity at S1P1 (unknown origin) expressed in PathHunter CHO-K1 EDG1 beta-arrestin cells assessed as beta-arrestin2 recruitment at 1 uM incubated for 90 mins by chemiluminescence based assay relative to control; format: functional, cell-based
[3] = target: T1, Sphingosine 1-phosphate receptor 1; assay: Agonist activity at S1P1 (unknown origin) expressed in human HEK293/Galpha15 cells assessed as Ca2+ activation measured for 2 hrs by FLIPR analysis; format: functional, cell-based
[4] = target: T1, Sphingosine 1-phosphate receptor 1; assay: Agonist activity at S1P1 (unknown origin) expressed in PathHunter CHO-K1 EDG1 beta-arrestin cells assessed as beta-arrestin2 recruitment incubated for 90 mins by chemiluminescence based assay; format: functional, cell-based
[5] = Microsomal stability in human liver microsomes assessed as parent compound remaining preincubated for 5 mins followed by NADPH addition measured after 30 mins by LC-MS/MS analysis; format: ADME, Microsome; details: time 35 min, read-out: Stability
[6] = Microsomal stability in mouse liver microsomes assessed as parent compound remaining preincubated for 5 mins followed by NADPH addition measured after 30 mins by LC-MS/MS analysis; format: ADME, Microsome; details: time 35 min, read-out: Stability
CYP1A2 = target: T2, CYP1A2 (Homo sapiens, UniProt P05177); assay: Inhibition of CYP1A2 in human liver microsomes using phenacetin as substrate assessed as residual activity at 10 uM preincubated for 5 mins followed by substrate addition and measured after 15 mins in presence of NADPH by LC-MS/MS analysis; format: ADME, Microsome; details: probe phenacetin, time 20 min, read-out: Activity
T2 sequence (P05177 whole entry): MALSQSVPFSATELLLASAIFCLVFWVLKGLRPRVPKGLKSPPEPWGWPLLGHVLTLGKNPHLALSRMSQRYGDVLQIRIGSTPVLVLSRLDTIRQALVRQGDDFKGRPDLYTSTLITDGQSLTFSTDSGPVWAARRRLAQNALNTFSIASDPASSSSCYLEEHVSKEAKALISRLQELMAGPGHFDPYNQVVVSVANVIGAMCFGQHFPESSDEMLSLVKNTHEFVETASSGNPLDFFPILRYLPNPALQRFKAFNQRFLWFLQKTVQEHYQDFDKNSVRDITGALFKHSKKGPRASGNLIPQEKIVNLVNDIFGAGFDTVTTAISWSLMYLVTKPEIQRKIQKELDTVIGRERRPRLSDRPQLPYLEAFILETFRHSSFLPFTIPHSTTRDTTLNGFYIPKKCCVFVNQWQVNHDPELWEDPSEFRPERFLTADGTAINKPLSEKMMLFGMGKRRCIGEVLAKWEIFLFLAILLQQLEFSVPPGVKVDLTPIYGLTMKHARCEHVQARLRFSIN

CYP2C9 = CYP2C9 (Homo sapiens, UniProt P11712); assay: Inhibition of CYP2C9 in human liver microsomes using diclofenac as substrate assessed as residual activity at 10 uM preincubated for 5 mins followed by substrate addition and measured after 15 mins in presence of NADPH by LC-MS/MS analysis; format: ADME, Microsome; details: probe diclofenac, time 20 min, read-out: Activity
CYP2D6 = CYP2D6 (Homo sapiens, UniProt P10635); assay: Inhibition of CYP2D6 in human liver microsomes using dextromethorphan as substrate assessed as residual activity at 10 uM preincubated for 5 mins followed by substrate addition and measured after 15 mins in presence of NADPH by LC-MS/MS analysis; format: ADME, Microsome; details: probe dextromethorphan, time 20 min, read-out: Activity
CYP3A4 = CYP3A4 (Homo sapiens, UniProt P08684); assay: Inhibition of CYP3A4 in human liver microsomes using midazolam as substrate assessed as residual activity at 10 uM preincubated for 5 mins followed by substrate addition and measured after 15 mins in presence of NADPH by LC-MS/MS analysis; format: ADME, Microsome; details: probe midazolam, time 20 min, read-out: Activity
[7] = Microsomal stability in rat liver microsomes assessed as parent compound remaining preincubated for 5 mins followed by NADPH addition measured after 60 mins by LC-MS/MS analysis; format: ADME, Microsome; details: time 65 min, read-out: Stability
[8] = Microsomal stability in mouse liver microsomes assessed as parent compound remaining preincubated for 5 mins followed by NADPH addition measured after 60 mins by LC-MS/MS analysis; format: ADME, Microsome; details: time 65 min, read-out: Stability

T1 sequence (P21453 whole entry): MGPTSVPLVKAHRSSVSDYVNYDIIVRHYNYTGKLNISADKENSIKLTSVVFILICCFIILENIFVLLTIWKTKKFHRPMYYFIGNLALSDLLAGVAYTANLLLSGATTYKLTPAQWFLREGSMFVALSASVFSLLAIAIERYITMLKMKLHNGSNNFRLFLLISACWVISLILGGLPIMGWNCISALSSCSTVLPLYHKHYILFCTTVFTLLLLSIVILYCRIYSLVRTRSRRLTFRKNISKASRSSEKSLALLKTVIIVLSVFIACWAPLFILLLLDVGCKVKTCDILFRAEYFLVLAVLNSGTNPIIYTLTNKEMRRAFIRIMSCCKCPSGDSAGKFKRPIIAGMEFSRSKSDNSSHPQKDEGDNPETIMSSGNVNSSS
CYP2C9, sequence (P11712 whole entry): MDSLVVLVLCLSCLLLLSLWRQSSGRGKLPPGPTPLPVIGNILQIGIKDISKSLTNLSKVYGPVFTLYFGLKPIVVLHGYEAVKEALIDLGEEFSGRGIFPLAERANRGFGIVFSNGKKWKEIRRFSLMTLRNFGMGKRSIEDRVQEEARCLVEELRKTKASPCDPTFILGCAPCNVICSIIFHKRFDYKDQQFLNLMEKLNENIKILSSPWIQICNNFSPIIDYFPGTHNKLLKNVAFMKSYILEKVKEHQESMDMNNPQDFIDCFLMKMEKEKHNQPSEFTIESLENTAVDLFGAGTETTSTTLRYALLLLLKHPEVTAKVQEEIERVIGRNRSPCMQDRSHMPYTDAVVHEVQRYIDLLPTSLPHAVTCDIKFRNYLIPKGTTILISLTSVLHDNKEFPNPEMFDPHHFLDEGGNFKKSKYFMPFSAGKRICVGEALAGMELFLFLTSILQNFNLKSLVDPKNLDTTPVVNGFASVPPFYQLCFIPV
CYP2D6, sequence (P10635 whole entry): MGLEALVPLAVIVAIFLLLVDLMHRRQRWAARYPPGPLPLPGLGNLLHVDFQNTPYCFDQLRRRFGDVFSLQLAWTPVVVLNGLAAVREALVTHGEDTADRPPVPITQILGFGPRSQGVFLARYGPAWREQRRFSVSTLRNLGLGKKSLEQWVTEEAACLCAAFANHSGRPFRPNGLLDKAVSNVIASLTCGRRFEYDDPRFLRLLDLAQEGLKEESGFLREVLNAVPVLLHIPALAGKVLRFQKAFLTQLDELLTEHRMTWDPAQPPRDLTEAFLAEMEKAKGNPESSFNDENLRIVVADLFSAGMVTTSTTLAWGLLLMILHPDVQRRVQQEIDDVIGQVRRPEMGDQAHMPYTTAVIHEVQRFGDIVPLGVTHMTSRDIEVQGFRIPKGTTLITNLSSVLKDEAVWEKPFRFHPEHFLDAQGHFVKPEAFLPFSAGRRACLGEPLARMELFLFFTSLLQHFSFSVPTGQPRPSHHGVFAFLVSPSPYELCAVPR
CYP3A4, sequence (P08684 whole entry): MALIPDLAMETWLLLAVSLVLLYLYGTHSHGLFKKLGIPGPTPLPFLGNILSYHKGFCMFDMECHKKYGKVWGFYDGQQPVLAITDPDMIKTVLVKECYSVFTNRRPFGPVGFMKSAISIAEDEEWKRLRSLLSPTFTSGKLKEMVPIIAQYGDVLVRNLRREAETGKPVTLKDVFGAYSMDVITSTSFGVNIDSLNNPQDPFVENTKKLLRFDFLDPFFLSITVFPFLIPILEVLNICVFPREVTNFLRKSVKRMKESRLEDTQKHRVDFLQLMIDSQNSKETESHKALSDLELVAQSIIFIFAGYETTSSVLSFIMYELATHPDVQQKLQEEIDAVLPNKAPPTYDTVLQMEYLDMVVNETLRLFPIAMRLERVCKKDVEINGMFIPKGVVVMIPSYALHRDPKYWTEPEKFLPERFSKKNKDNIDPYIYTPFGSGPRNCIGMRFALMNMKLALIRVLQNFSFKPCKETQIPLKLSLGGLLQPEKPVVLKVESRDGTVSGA

Activity [1] [%] | Activity [2] [%] | Activity ([2]; filed as agonist) [%] | EC50 [4] [nM] | SMILES | also measured
14 | 24 | – | – | CC(C)Oc1ccc(COc2ccc3c(c2)OCCN(CCC(=O)O)C3)cc1C#N | –
– | – | 40 | – | CC(C)Oc1ccc(COc2ccc3c(c2)CCN(C(=O)CCC(=O)O)C3C)cc1C#N (configuration not stated) | Activity ([1]; filed as agonist): 57%; EC50 [3]: 951 nM
– | – | 91 | 109 | CC(C)Oc1ccc(COc2ccc3c(c2)CCN(C(=O)CCC(N)=O)C3)cc1C#N | Activity ([1]; filed as agonist): 47%; EC50 [3]: 2260 nM
6 | – | 68 | 743 | CC(C)Oc1ccc(COc2ccc3c(c2)CCN(C(=O)CCCNS(C)(=O)=O)C3)cc1C#N | –
7 | 7 | – | – | COC(=O)CCS(=O)(=O)N1CCc2cc(NC(=O)c3ccc(OC(C)C)c(C#N)c3)ccc2C1 | –
– | – | 98 | 193 | CC(C)Oc1ccc(COc2ccc3c(c2)CCN(CCC(=O)O)C3)cc1C#N | Activity ([1]; filed as agonist): 82%; EC50 [3]: 247 nM; remaining at 0.5 h [5]: 99%; remaining at 0.5 h [6]: 98.7%; activity at 0.25 h, 10 µM (CYP1A2): 85.1%; activity at 0.25 h, 10 µM (CYP2C9): 92.2%; activity at 0.25 h, 10 µM (CYP2D6): 95.4%; activity at 0.25 h, 10 µM (CYP3A4): 90.2%
14 | 26 | – | – | CC(C)Oc1ccc(COc2ccc3c(n2)CCN(C(=O)CCC(=O)O)C3)cc1C#N | –
5 | 3 | – | – | COC(=O)CCS(=O)(=O)N1CCc2cc(Nc3ccc(OC(C)C)c(C#N)c3)ccc2C1 | –
36 | – | 88 | 184 | CC(C)Oc1ccc(COc2ccc3c(c2)CCN(C(=O)CCO)C3)cc1C#N | –
3 | 7 | – | – | CC(C)Oc1ccc(COc2ccc3c(c2)CN(S(=O)(=O)CCCO)CC3)cc1C#N | –
5 | 30 | – | – | CC(C)Oc1ccc(COc2ccc3c(c2)CCN(CCCO)C3)cc1C#N | –
3 | 24 | – | – | CC(C)Oc1ccc(COc2ccc3c(c2)CCN(CCCCO)C3)cc1C#N | –
3 | 4 | – | – | CC(C)Oc1ccc(COc2ccc3c(c2)CN(S(=O)(=O)CCC(=O)O)CC3)cc1C#N | –
– | – | 42 | – | CC(C)Oc1ccc(COc2ccc3c(c2)CCN(C(=O)CC(=O)O)C3)cc1C#N | Activity ([1]; filed as agonist): 64%; EC50 [3]: 788 nM
3 | 1 | – | – | CC(C)Oc1ccc(COc2cccc3c2CCN(S(=O)(=O)CCCO)C3)cc1C#N | –
6 | – | 89 | 279 | COC(=O)CS(=O)(=O)N1CCc2cc(OCc3ccc(OC(C)C)c(C#N)c3)ccc2C1 | –
12 | 5 | – | – | COC(=O)CCS(=O)(=O)N1CCc2cc(N(C)Cc3ccc(OC(C)C)c(C#N)c3)ccc2C1 | –
3 | 2 | – | – | CC(C)Oc1ccc(COc2ccc3c(c2)CCCN(CCC(=O)O)C3)cc1C#N | –
9 | 25 | – | – | CC(C)Oc1ccc(COc2ccc3c(c2)CCN(S(=O)(=O)CCC(=O)O)CC3)cc1C#N | –
10 | – | 118 | 346 | CC(C)Oc1ccc(COc2ccc3c(n2)CCN(S(=O)(=O)CCCO)C3)cc1C#N | –
4 | 1 | – | – | CC(C)Oc1ccc(COc2cccc3c2CCN(S(=O)(=O)CCC(=O)O)C3)cc1C#N | –
– | – | 74 | 105 | CC(C)Oc1ccc(COc2ccc3c(c2)CCN(CCC(=O)O)C3C)cc1C#N (configuration not stated) | Activity ([1]; filed as agonist): 69%; EC50 [3]: 524 nM
3 | 35 | – | – | CC(C)Oc1ccc(COc2ccc3c(c2)CCCN3S(=O)(=O)CCCO)cc1C#N | –
7 | – | 91 | 154 | COC(=O)CCCN1CCc2cc(OCc3ccc(OC(C)C)c(C#N)c3)ccc2C1 | –

Activity [1] [%] | Activity [2] [%] | Activity ([2]; filed as agonist) [%] | EC50 [4] [nM] | SMILES | also measured
18 | 15 | – | – | CC(C)Oc1ccc(C(=O)Nc2ccc3c(c2)CCN(S(=O)(=O)CCC(=O)O)C3)cc1C#N | –
– | – | 109 | 28.6 | CC(C)Oc1ccc(COc2ccc3c(c2)OCCN(S(=O)(=O)CCC(=O)O)C3)cc1C#N | Activity ([1]; filed as agonist): 83%; EC50 [3]: 68 nM; remaining at 1 h [7]: 92.9%; remaining at 1 h [8]: 90.5%; activity at 0.25 h, 10 µM (CYP1A2): 71.2%; activity at 0.25 h, 10 µM (CYP2C9): 70.7%; activity at 0.25 h, 10 µM (CYP2D6): 73.6%; activity at 0.25 h, 10 µM (CYP3A4): 68.8%
– | – | 105 | 424 | CC(=O)NCCCC(=O)N1CCc2cc(OCc3ccc(OC(C)C)c(C#N)c3)ccc2C1 | Activity ([1]; filed as agonist): 55%; EC50 [3]: 1260 nM
– | – | 67 | 695 | CC(C)Oc1ccc(COc2ccc3c(c2)CCN(CC(=O)O)C3)cc1C#N | Activity ([1]; filed as agonist): 56%; EC50 [3]: 1.06 nM
8 | 9 | – | – | CC(C)Oc1ccc(CN(C)c2ccc3c(c2)CCN(S(=O)(=O)CCC(=O)O)C3)cc1C#N | –
9 | – | 103 | 59.9 | COC(=O)CCS(=O)(=O)N1CCc2cc(OCc3ccc(OC(C)C)c(C#N)c3)ccc2C1 | –
– | – | 91 | 98.2 | CC(C)Oc1ccc(COc2ccc3c(c2)CCN(CCCC(=O)O)C3)cc1C#N | Activity ([1]; filed as agonist): 79%; EC50 [3]: 97.1 nM
– | – | 91 | 331 | COC(=O)CCN1CCc2cc(OCc3ccc(OC(C)C)c(C#N)c3)ccc2C1 | Activity ([1]; filed as agonist): 40%
1 | 2 | – | – | CC(C)Oc1ccc(COc2ccc3c(c2)CN(CCC(=O)O)CC3)cc1C#N | –
13 | 26 | – | – | COC(=O)CCS(=O)(=O)N1CCc2cc(NCc3ccc(OC(C)C)c(C#N)c3)ccc2C1 | –
13 | 32 | – | – | COC(=O)CN1CCc2cc(OCc3ccc(OC(C)C)c(C#N)c3)ccc2C1 | –
7 | 32 | – | – | CC(C)Oc1ccc(COc2ccc3c(c2)CCN(CCO)C3)cc1C#N | –
10 | 18 | – | – | CC(C)Oc1ccc(COc2ccc3c(c2)CCN(C(C)C(=O)O)C3)cc1C#N (configuration not stated) | –
– | – | 92 | 162 | CC(C)Oc1ccc(COc2ccc3c(c2)CCN(S(=O)(=O)CC(=O)O)C3)cc1C#N | Activity ([1]; filed as agonist): 85%; EC50 [3]: 89 nM
– | – | 96 | 22.3 | CC(C)Oc1ccc(COc2ccc3c(c2)OCCN(S(=O)(=O)CCO)C3)cc1C#N | Activity ([1]; filed as agonist): 65%; EC50 [3]: 674 nM
12 | – | 45 | – | CC(C)Oc1ccc(COc2ccc3c(c2)CCN(S(=O)(=O)CCCO)C3C)cc1C#N (configuration not stated) | –
21 | 17 | – | – | CC(C)Oc1ccc(COc2ccc3c(c2)CCN(S(=O)(=O)CC(=O)O)C3C)cc1C#N (configuration not stated) | –
– | – | 117 | 276 | CC(=O)NCCC(=O)N1CCc2cc(OCc3ccc(OC(C)C)c(C#N)c3)ccc2C1 | Activity ([1]; filed as agonist): 41%; EC50 [3]: 1720 nM; remaining at 0.5 h [5]: 29.7%; remaining at 0.5 h [6]: 14.9%
39 | – | 82 | 1470 | CNC(=O)CCC(=O)N1CCc2cc(OCc3ccc(OC(C)C)c(C#N)c3)ccc2C1 | –
8 | 0 | – | – | CC(C)Oc1ccc(COc2ccc3c(c2)CN(S(=O)(=O)CCC(=O)O)CCC3)cc1C#N | –
6 | 2 | – | – | CC(C)Oc1ccc(COc2cccc3c2CCN(CCC(=O)O)C3)cc1C#N | –
– | – | 88 | 191 | CC(C)Oc1ccc(COc2ccc3c(c2)CCN(S(=O)(=O)CCO)C3)cc1C#N | Activity ([1]; filed as agonist): 44%
6 | – | 72 | 496 | CC(C)Oc1ccc(COc2ccc3c(c2)CCN(S(=O)(=O)CCCO)C3)cc1C#N | –
13 | 6 | – | – | CC(C)Oc1ccc(COc2ccc3c(c2)CN(CCC(=O)O)CCC3)cc1C#N | –
